These results are taken from publication PMC10648541, “Design, Synthesis, and Antiproliferative Activity of Selective Histone Deacetylases 6 Inhibitors Containing a Tetrahydropyridopyrimidine Scaffold” (Molecules, 2023).

A value given as a limit tells only on which side of the number the result lay.

One test relates to NCI-H460. Nature of the test: NCI-60 antiproliferative screening, NCI-H460. It counts as cell-based. The settings on record: Homo sapiens, NCI-H460 (Non-Small Cell Lung Cancer), read-out: Inhibition% values at 10 μM concentration. From the text:
Then, 8f was submitted to NCI for antiproliferative evaluation against 59 different tumor cell lines. The cancer types of the NCI-60 program include leukemia, non-small cell lung cancer (NSCLC), colon cancer, CNS cancer, melanoma, ovary cancer, renal cancer, prostate cancer, and breast cancer.

The target of a further test is T1, HDAC5 (Homo sapiens, UniProt Q9UQL6).
T1 construct: purchased Reaction Biology Corporation
Nature of the test: In vitro HDAC enzyme assay (Reaction Biology Corporation), HDAC5. In kind it is biochemical. The settings on record: Table 2 isozyme screen; duplicate, SD < 15%.

By IC50 is commonly meant the concentration at which inhibition is half-maximal. A low value points to greater potency.

T1 sequence (Q9UQL6 whole entry): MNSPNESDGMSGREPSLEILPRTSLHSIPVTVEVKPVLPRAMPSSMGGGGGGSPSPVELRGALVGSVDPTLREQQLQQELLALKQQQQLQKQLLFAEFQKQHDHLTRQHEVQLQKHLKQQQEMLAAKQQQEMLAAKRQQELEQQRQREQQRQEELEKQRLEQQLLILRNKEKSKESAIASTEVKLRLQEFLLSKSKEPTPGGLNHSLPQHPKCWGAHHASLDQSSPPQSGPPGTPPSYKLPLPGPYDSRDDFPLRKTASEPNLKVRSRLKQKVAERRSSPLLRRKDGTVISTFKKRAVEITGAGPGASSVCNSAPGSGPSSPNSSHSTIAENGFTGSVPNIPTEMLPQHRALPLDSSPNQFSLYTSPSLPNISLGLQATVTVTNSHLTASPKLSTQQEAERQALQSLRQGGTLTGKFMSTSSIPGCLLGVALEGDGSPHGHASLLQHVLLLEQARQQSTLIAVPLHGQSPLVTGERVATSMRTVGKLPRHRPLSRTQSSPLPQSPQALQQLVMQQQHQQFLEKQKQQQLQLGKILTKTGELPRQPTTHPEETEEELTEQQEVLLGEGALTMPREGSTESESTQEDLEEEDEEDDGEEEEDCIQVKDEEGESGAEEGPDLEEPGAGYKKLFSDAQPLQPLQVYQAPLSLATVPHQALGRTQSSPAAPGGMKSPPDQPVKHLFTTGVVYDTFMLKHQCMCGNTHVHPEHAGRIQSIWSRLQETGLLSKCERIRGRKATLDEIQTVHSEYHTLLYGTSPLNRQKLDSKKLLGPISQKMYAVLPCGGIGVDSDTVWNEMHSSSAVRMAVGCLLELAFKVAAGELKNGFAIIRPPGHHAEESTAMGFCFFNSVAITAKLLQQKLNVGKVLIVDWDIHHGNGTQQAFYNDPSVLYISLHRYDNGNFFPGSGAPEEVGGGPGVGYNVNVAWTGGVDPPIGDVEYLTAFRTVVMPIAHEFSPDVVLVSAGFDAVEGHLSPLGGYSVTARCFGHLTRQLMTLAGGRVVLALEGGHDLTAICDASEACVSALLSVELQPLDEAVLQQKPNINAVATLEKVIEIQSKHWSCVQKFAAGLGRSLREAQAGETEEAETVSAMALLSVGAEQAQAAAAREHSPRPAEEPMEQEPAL

In the case of `COc1cccc(-c2nc3c(c(-c4cccc(OC)c4)n2)CCN(C(=O)CCCCCCC(=O)NO)C3)c1` [Compound 8f, 8-(2,4-Bis(3-methoxyphenyl)-5,8-dihydropyrido [3,4-d]pyrimidin-7(6H)-yl)-N-hydroxy-8-oxooctanamide], the inhibition at 10 µM in the test on NCI-H460 is 95.5%. At HDAC5, the “HDAC5 IC50” value is given as “poor activity” and the IC50 is more than 10 µM.
